Test results published in US7947647B2, “Synthetic mimics of mammalian cell surface receptors: method and compositions” (The Penn State Research Foundation, priority 2004, dated 2011).
Where “and” joins values, the source holds several entries; their conditions need not be identical. Equal values may be shown once.

What was measured:
Jurkat lymphocytes [1] = experiment: Uptake of AcGFP-oligohistidine fusion proteins (flow cytometry); assay type: cell-based, human; settings: receptor 10 μM preloaded 1 h, protein 3.2 μM, Ni(OAc)2 100 μM
Procedure: FIG. 25. Analysis of cellular uptake of His-tagged AcGFP proteins by flow cytometry. Each bar represents the average fluorescence of 10,000 cells. Unless otherwise noted, cellular plasma membranes of Jurkat lymphocytes were preloaded with receptor 1 (10 μM) for 1 h at 37° C., cells were washed with fresh media, and His-tagged AcGFP (3.2 μM)/metal diacetate solution (100 μM) was added for 4 h at 37° C. Prior to analysis, cells were washed with NTA (400 μM, 30 min) in PBS (pH 7.4) to remove bound surface protein. Panel A: Dose dependence of receptor-mediated uptake. Premix conditions: a solution containing receptor 1, Ni(OAc)2, and AcGFP(His)10 was added to cells for 4 h. Panel B: Dependence on [Ni(OAc)2]. Panel C: Omission control experiments. Panel D; Uptake of (His)6 and (His)10 fusion proteins promoted by different metal diacetates.
Preload conditions: To Jurkat lymphocytes (7×10^5) in RPMI media (0.5 mL) was added synthetic receptor 1 (typical final [Receptor 1]=10 μM) in DMSO (final [DMSO]=1%). These cells were incubated at 37° C. for 1 h to load the receptor into cellular plasma membranes. The cells were washed with RPMI media (0.5 mL) to remove unincorporated receptor/DMSO and resuspended in fresh media (87.6 μL). […]

Jurkat lymphocytes [2] = assay type: cell-based
Procedure: Analysis of cytotoxicity of protein delivery.
To examine the toxicity of this metal acetate and protein delivery, cellular viability was examined by flow cytometry. In these experiments, Jurkat lymphocytes were treated with receptor 1 (10 μM, 1 h), followed by AcGFP(His)10 (3.2 μM), and Ni(OAc)2 (100 μM, 4 h) to enhance protein uptake by 600-fold. Cells were washed with disodium NTA to remove cell surface protein and were cultured for an additional 48 h. Cellular viability was determined by light scattering and staining the nuclei of membrane-compromised dead cells with the fluorophore propidium iodide. Under these conditions, 97% of the cells were viable, compared with 98.6% of untreated controls, and no effects on cellular morphology were observed. Other studies have similarly reported low toxicity of nickel salts at <160 μM in cell culture.^14 By enabling common oligohistidine affinity tags to function as cell penetrating peptides, synthetic receptor 1 provides a potentially versatile new probe of cellular biology.

CC(C)CCC[C@@H](C)[C@H]1CC[C@H]2[C@@H]3CC=C4C[C@@H](NCCCCC(=O)NCCC(=O)NCCC(=O)NCCCCC(C(=O)O)N(CC(=O)O)CC(=O)O)CC[C@]4(C)[C@H]3CC[C@]12C (stereo partly drawn) [receptor 1, 4-Carboxy-3-(carboxymethyl)-22-[(3β)-cholest-5-en-3-ylamino]-10,14,18-trioxo-3,9,13,17-tetraazadocosan-1-oic acid]
intracellular delivery of AcGFP(His)10 above basal levels of endocytosis (Jurkat lymphocytes [1]): > 600 fold and 600 fold | effects on viability or cellular morphology (Jurkat lymphocytes [2]): No significant effects on viability or cellular morphology were observed | cells viable (Jurkat lymphocytes [2]; human, 10 μM): 97%
